From PMC5218480 (PLoS ONE, 2017)

Test system: MV-4-11 cells
Test: Gene expression microarray analysis (Affymetrix PrimeView) and GSEA
Assay type: cell-based, human
Set-up: RFU PODN (11730768_x_at) / Fold change /veh PODN (11730768_x_at) / RFU LINC00158 (11744669_a_at) / Fold change /veh LINC00158 (11744669_a_at) / RFU DUSP10 (11751237_a_at) / Fold change /veh DUSP10 (11751237_a_at) / RFU ID3 (11757404_x_at) / Fold change /veh ID3 (11757404_x_at) / RFU PLEKHG5 (11737974_s_at) / Fold change /veh PLEKHG5 (11737974_s_at) / RFU LRRC4B (11730491_at) / Fold change /veh LRRC4B (11730491_at) / RFU GIMAP4 (11747438_a_at) / Fold change /veh GIMAP4 (11747438_a_at) / RFU KRT8 (11758183_x_at) / Fold change /veh KRT8 (11758183_x_at) / RFU CNN1 (11734310_a_at) / Fold change /veh CNN1 (11734310_a_at) / RFU VPS37D (11726825_at) / Fold change /veh VPS37D (11726825_at) / RFU C10orf10 (11716522_x_at) / Fold change /veh C10orf10 (11716522_x_at) / RFU KIR2DL2 /// KIR2DL4 /// KIR2DL5A /// KIR2DL5B /// KIR2DS1 /// KIR2DS2 /// KIR2DS3 /// KIR2DS4 /// KIR3DL3 /// KIR3DL3 /// KIR3DS1 (11738374_at) / Fold change /veh KIR2DL2 /// KIR2DL4 /// KIR2DL5A /// KIR2DL5B /// KIR2DS1 /// KIR2DS2 /// KIR2DS3 /// KIR2DS4 /// KIR3DL3 /// KIR3DL3 /// KIR3DS1 (11738374_at) / RFU C1QL1 (11718748_at) / Fold change /veh C1QL1 (11718748_at) / RFU TMPRSS4 (11747572_a_at) / Fold change /veh TMPRSS4 (11747572_a_at) / RFU HAMP (11756126_x_at) / Fold change /veh HAMP (11756126_x_at) / RFU RNFT2 (11725882_a_at) / Fold change /veh RNFT2 (11725882_a_at) / RFU NR4A2 (11747474_a_at) / Fold change /veh NR4A2 (11747474_a_at) / RFU ABCC12 (11746883_a_at) / Fold change /veh ABCC12 (11746883_a_at) / RFU TMEM136 (11760407_x_at) / Fold change /veh TMEM136 (11760407_x_at) / RFU CLDN22 /// WWC2 (11732394_at) / Fold change /veh CLDN22 /// WWC2 (11732394_at) / RFU HLA-DPB1 (11760878_x_at) / Fold change /veh HLA-DPB1 (11760878_x_at) / RFU SPINT1 (11716480_a_at) / Fold change /veh SPINT1 (11716480_a_at) / RFU GAP43 (11754022_s_at) / Fold change /veh GAP43 (11754022_s_at) / RFU A4GNT (11735810_at) / Fold change /veh A4GNT (11735810_at) / RFU PRB3 (11715151_x_at) / Fold change /veh PRB3 (11715151_x_at) / RFU TUBB4B (11761932_at) / Fold change /veh TUBB4B (11761932_at) / RFU CAPN14 (11732068_a_at) / Fold change /veh CAPN14 (11732068_a_at) / RFU TMCC2 (11721928_a_at) / Fold change /veh TMCC2 (11721928_a_at) / RFU IRGQ (11745062_a_at) / Fold change /veh IRGQ (11745062_a_at) / RFU FAM174B (11720279_a_at) / Fold change /veh FAM174B (11720279_a_at) / RFU TMPRSS4 (11748680_a_at) / Fold change /veh TMPRSS4 (11748680_a_at) / RFU FAM212B (11763350_a_at) / Fold change /veh FAM212B (11763350_a_at) / RFU PLEKHG5 (11743358_a_at) / Fold change /veh PLEKHG5 (11743358_a_at) / RFU ZSCAN30 (11745921_a_at) / Fold change /veh ZSCAN30 (11745921_a_at) / RFU CMKLR1 (11741424_a_at) / Fold change /veh CMKLR1 (11741424_a_at) / RFU LOC101060620 /// MAPK8IP1 (11723275_at) / Fold change /veh LOC101060620 /// MAPK8IP1 (11723275_at) / RFU SPTSSB (11747773_x_at) / Fold change /veh SPTSSB (11747773_x_at) / RFU PRSS12 (11739890_at) / Fold change /veh PRSS12 (11739890_at) / RFU BIN1 (11741810_x_at) / Fold change /veh BIN1 (11741810_x_at) / RFU WNT11 (11732464_a_at) / Fold change /veh WNT11 (11732464_a_at) / RFU C10orf10 (11716521_a_at) / Fold change /veh C10orf10 (11716521_a_at) / RFU C5orf56 (11738089_at) / Fold change /veh C5orf56 (11738089_at) / RFU CYB561 (11721691_x_at) / Fold change /veh CYB561 (11721691_x_at) / RFU ANKRD19P (11752326_a_at) / Fold change /veh ANKRD19P (11752326_a_at) / RFU OR2T12 /// OR2T33 /// OR2T8 (11738714_s_at) / Fold change /veh OR2T12 /// OR2T33 /// OR2T8 (11738714_s_at) / RFU VCAN (11748164_a_at) / Fold change /veh VCAN (11748164_a_at) / RFU JSRP1 (11732532_at) / Fold change /veh JSRP1 (11732532_at) / RFU KRTAP10-11 (11738290_x_at) / Fold change /veh KRTAP10-11 (11738290_x_at) / RFU MYO3A (11730013_a_at) / Fold change /veh MYO3A (11730013_a_at) / RFU EBF3 (11725865_a_at) / Fold change /veh EBF3 (11725865_a_at) / RFU CAMK2N1 (11719241_x_at) / Fold change /veh CAMK2N1 (11719241_x_at) / RFU C5orf56 (11738088_a_at) / Fold change /veh C5orf56 (11738088_a_at) / RFU OLFML3 (11715873_a_at) / Fold change /veh OLFML3 (11715873_a_at) / RFU LOC100653217 /// NTM (11731650_a_at) / Fold change /veh LOC100653217 /// NTM (11731650_a_at) / RFU MAPK11 (11762145_a_at) / Fold change /veh MAPK11 (11762145_a_at) / RFU FIZ1 (11724087_x_at) / Fold change /veh FIZ1 (11724087_x_at) / RFU OASL (11726364_x_at) / Fold change /veh OASL (11726364_x_at) / RFU SOX15 (11748057_x_at) / Fold change /veh SOX15 (11748057_x_at) / RFU CD79A (11719716_a_at) / Fold change /veh CD79A (11719716_a_at) / RFU HIST1H1D (11736915_at) / Fold change /veh HIST1H1D (11736915_at) / RFU CASKIN2 (11723855_a_at) / Fold change /veh CASKIN2 (11723855_a_at) / RFU LOC730098 (11760151_x_at) / Fold change /veh LOC730098 (11760151_x_at) / RFU OR4N2 (11742367_at) / Fold change /veh OR4N2 (11742367_at) / RFU PRRT2 (11749266_a_at) / Fold change /veh PRRT2 (11749266_a_at) / RFU SNX32 (11753110_a_at) / Fold change /veh SNX32 (11753110_a_at) / RFU CDHR5 (11726645_a_at) / Fold change /veh CDHR5 (11726645_a_at) / RFU RCAN1 (11760418_a_at) / Fold change /veh RCAN1 (11760418_a_at) / RFU FAM167A (11723789_a_at) / Fold change /veh FAM167A (11723789_a_at) / RFU FAM26E (11764081_at) / Fold change /veh FAM26E (11764081_at) / RFU ISYNA1 (11749810_s_at) / Fold change /veh ISYNA1 (11749810_s_at) / RFU ACY1 (11761880_at) / Fold change /veh ACY1 (11761880_at) / RFU 11764098_at / Fold change /veh 11764098_at / RFU SAMD14 (11745864_x_at) / Fold change /veh SAMD14 (11745864_x_at) / RFU NPB (11741838_a_at) / Fold change /veh NPB (11741838_a_at) / RFU TMPRSS6 (11731388_a_at) / Fold change /veh TMPRSS6 (11731388_a_at) / RFU KRTAP10-2 (11738614_at) / Fold change /veh KRTAP10-2 (11738614_at) / RFU ARHGAP8 /// PRR5-ARHGAP8 (11727945_x_at) / Fold change /veh ARHGAP8 /// PRR5-ARHGAP8 (11727945_x_at) / RFU KRTAP5-7 /// NADSYN1 (11734609_at) / Fold change /veh KRTAP5-7 /// NADSYN1 (11734609_at) / RFU RASL12 (11751679_a_at) / Fold change /veh RASL12 (11751679_a_at) / RFU CDKN2B (11736163_a_at) / Fold change /veh CDKN2B (11736163_a_at) / RFU PRF1 (11729649_at) / Fold change /veh PRF1 (11729649_at) / RFU, ZNF638 /// ZNF638-IT1 / Fold change vs veh, ZNF638 /// ZNF638-IT1 / RFU, PANK3 / Fold change vs veh, PANK3 / RFU, SH3YL1 / Fold change vs veh, SH3YL1 / RFU, ZEB2 / Fold change vs veh, ZEB2 / RFU, NRIP1 / Fold change vs veh, NRIP1 / RFU, PTTG1IP / Fold change vs veh, PTTG1IP / RFU, CAPN2 / Fold change vs veh, CAPN2 / RFU, MED14 / Fold change vs veh, MED14 / RFU, SNORA58 / Fold change vs veh, SNORA58 / RFU, C1orf63 / Fold change vs veh, C1orf63 / RFU, LRRFIP1 / Fold change vs veh, LRRFIP1 / RFU, NDUFAF7 / Fold change vs veh, NDUFAF7 / RFU, SLC12A2 / Fold change vs veh, SLC12A2 / RFU, IBTK / Fold change vs veh, IBTK / RFU, ESF1 / Fold change vs veh, ESF1 / Fold change vs veh, TMEM50B / RFU, TAOK1 / Fold change vs veh, TAOK1 / RFU, ACBD3 / Fold change vs veh, ACBD3 / RFU, TMA16 / Fold change vs veh, TMA16 / RFU, RWDD3 / Fold change vs veh, RWDD3 / RFU, BCAT1 / Fold change vs veh, BCAT1 / RFU, EDEM3 / Fold change vs veh, EDEM3 / RFU, TMEM33 / Fold change vs veh, TMEM33 / RFU, WDR75 / Fold change vs veh, WDR75 / RFU, AHCTF1 / Fold change vs veh, AHCTF1 / RFU, TFRC / Fold change vs veh, TFRC / RFU, ZDHHC17 / Fold change vs veh, ZDHHC17 / RFU, NOM1 / Fold change vs veh, NOM1 / RFU, ARL8B / Fold change vs veh, ARL8B / RFU, ZBTB11 / Fold change vs veh, ZBTB11 / RFU, TAMM41 / Fold change vs veh, TAMM41 / RFU, KIAA1704 /// LOC100996395 / Fold change vs veh, KIAA1704 /// LOC100996395 / RFU, ING1 / Fold change vs veh, ING1 / RFU, TRMT61B / Fold change vs veh, TRMT61B / RFU, FUBP3 / Fold change vs veh, FUBP3 / RFU, TP53 / Fold change vs veh, TP53 / RFU, TNKS2 / Fold change vs veh, TNKS2 / RFU, ZFP14 / Fold change vs veh, ZFP14 / RFU, ACTR2 / Fold change vs veh, ACTR2 / RFU, PPP3R1 / Fold change vs veh, PPP3R1 / RFU, PIK3R1 / Fold change vs veh, PIK3R1 / RFU, HNRNPA1 / Fold change vs veh, HNRNPA1 / RFU, RNF170 / Fold change vs veh, RNF170 / RFU, ZNF28 / Fold change vs veh, ZNF28 / RFU, RNGTT / Fold change vs veh, RNGTT / RFU, OGT / Fold change vs veh, OGT / RFU, BRD1 / Fold change vs veh, BRD1 / RFU, MARS / Fold change vs veh, MARS / RFU, ZNF655 / Fold change vs veh, ZNF655 / RFU, FAHD1 / Fold change vs veh, FAHD1 / RFU, BDP1 / Fold change vs veh, BDP1 / RFU, LRRCC1 / Fold change vs veh, LRRCC1 / RFU, ARID1A / Fold change vs veh, ARID1A / RFU, ZNF146 / Fold change vs veh, ZNF146 / RFU, ZNF330 / Fold change vs veh, ZNF330 / RFU, GPN3 / Fold change vs veh, GPN3 / RFU, C9orf123 / Fold change vs veh, C9orf123 / RFU, N4BP2L2 / Fold change vs veh, N4BP2L2 / RFU, ARFIP1 / Fold change vs veh, ARFIP1 / RFU, FAM179B / Fold change vs veh, FAM179B / RFU, BCL10 / Fold change vs veh, BCL10 / RFU, UHRF1BP1L / Fold change vs veh, UHRF1BP1L / RFU, BET1 / Fold change vs veh, BET1 / RFU, CNOT2 / Fold change vs veh, CNOT2 / RFU, ZNF268 / Fold change vs veh, ZNF268 / Fold change vs veh, ZNF507 / RFU, DGCR2 / Fold change vs veh, DGCR2 / RFU, WDSUB1 / Fold change vs veh, WDSUB1 / Fold change vs veh, HSP90B1 /// MIR3652 / RFU, ADSS / Fold change vs veh, ADSS / RFU, GK / Fold change vs veh, GK / RFU, ZNF148 / Fold change vs veh, ZNF148 / RFU, TAF9 / Fold change vs veh, TAF9 / RFU, SLC1A5 / Fold change vs veh, SLC1A5 / RFU, SLMO2 / Fold change vs veh, SLMO2 / RFU, ABCC4 / Fold change vs veh, ABCC4 / RFU, LOC101060439 /// RAP1B / Fold change vs veh, LOC101060439 /// RAP1B / RFU, RFX7 / Fold change vs veh, RFX7 / RFU, GTPBP10 / Fold change vs veh, GTPBP10 / RFU, CNEP1R1 / Fold change vs veh, CNEP1R1 / RFU, BIVM-ERCC5 /// ERCC5 / Fold change vs veh, BIVM-ERCC5 /// ERCC5 / RFU, ILF3 / Fold change vs veh, ILF3 / RFU 11762660_at / Fold change /veh 11762660_at / RFU VCAN (11757783_s_at) / Fold change /veh VCAN (11757783_s_at) / RFU DDX43 (11728927_at) / Fold change /veh DDX43 (11728927_at) / RFU KRT8 (11758188_x_at) / Fold change /veh KRT8 (11758188_x_at) / RFU NKD1 (11759106_at) / Fold change /veh NKD1 (11759106_at) / RFU SRD5A1 (11742802_a_at) / Fold change /veh SRD5A1 (11742802_a_at) / RFU TPSAB1 /// TPSB2 (11721975_s_at) / Fold change /veh TPSAB1 /// TPSB2 (11721975_s_at) / RFU GSTM3 (11746129_a_at) / Fold change /veh GSTM3 (11746129_a_at) / RFU IL23R (11737362_x_at) / Fold change /veh IL23R (11737362_x_at) / RFU TMEM51 (11727254_a_at) / Fold change /veh TMEM51 (11727254_a_at) / RFU PIWIL2 (11732686_x_at) / Fold change /veh PIWIL2 (11732686_x_at) / RFU ORM1 (11744905_x_at) / Fold change /veh ORM1 (11744905_x_at) / RFU CCDC152 (11743942_at) / Fold change /veh CCDC152 (11743942_at) / RFU ECM1 (11717891_a_at) / Fold change /veh ECM1 (11717891_a_at) / RFU IL23R (11748794_a_at) / Fold change /veh IL23R (11748794_a_at) / RFU TNFAIP8L3 (11732012_x_at) / Fold change /veh TNFAIP8L3 (11732012_x_at) / RFU MBOAT4 (11741988_at) / Fold change /veh MBOAT4 (11741988_at) / RFU 11764193_at / Fold change /veh 11764193_at / RFU TMEM53 (11763286_at) / Fold change /veh TMEM53 (11763286_at) / RFU MAGEB2 (11727129_at) / Fold change /veh MAGEB2 (11727129_at) / RFU TMEM200A (11744735_a_at) / Fold change /veh TMEM200A (11744735_a_at) / RFU CCDC152 (11751479_a_at) / Fold change /veh CCDC152 (11751479_a_at) / RFU FAM211A (11726209_a_at) / Fold change /veh FAM211A (11726209_a_at) / RFU RGS16 (11746705_a_at) / Fold change /veh RGS16 (11746705_a_at) / RFU VCAN (11755009_s_at) / Fold change /veh VCAN (11755009_s_at) / RFU RHOB (11743442_s_at) / Fold change /veh RHOB (11743442_s_at) / RFU RGS16 (11720943_a_at) / Fold change /veh RGS16 (11720943_a_at) / RFU RGS16 (11720944_at) / Fold change /veh RGS16 (11720944_at) / RFU, VPS4B / Fold change vs veh, VPS4B / RFU, CREB1 / Fold change vs veh, CREB1 / RFU, DNAJC13 / Fold change vs veh, DNAJC13 / RFU, GNAQ / Fold change vs veh, GNAQ / RFU, CDK5R1 / Fold change vs veh, CDK5R1 / RFU, ZRANB3 / Fold change vs veh, ZRANB3 / RFU, CUL4A / Fold change vs veh, CUL4A / RFU, CCNY / Fold change vs veh, CCNY / RFU, UFL1 / Fold change vs veh, UFL1 / RFU, COG3 / Fold change vs veh, COG3 / RFU, DIAPH2 / Fold change vs veh, DIAPH2 / RFU, SKA2 / Fold change vs veh, SKA2 / RFU, AFF3 / Fold change vs veh, AFF3 / RFU, LMF1 / Fold change vs veh, LMF1 / RFU, IPO11 / Fold change vs veh, IPO11 / RFU, DFFB / Fold change vs veh, DFFB / RFU, FOXP1 / Fold change vs veh, FOXP1 / RFU, CARD8 / Fold change vs veh, CARD8 / RFU, STRN3 / Fold change vs veh, STRN3 / RFU, ADK / Fold change vs veh, ADK / RFU, RASSF2 / Fold change vs veh, RASSF2 / RFU, WIPF1 / Fold change vs veh, WIPF1 / RFU, LARP1B / Fold change vs veh, LARP1B / RFU, RASA1 / Fold change vs veh, RASA1 / RFU, RB1 / Fold change vs veh, RB1 / RFU, PPFIA1 / Fold change vs veh, PPFIA1 / RFU, MAT2A / Fold change vs veh, MAT2A / RFU, CCT5 / Fold change vs veh, CCT5 / RFU, WDR92 / Fold change vs veh, WDR92 / RFU, CUX1 / Fold change vs veh, CUX1 / RFU, TTC7A / Fold change vs veh, TTC7A / RFU, TMEM135 / Fold change vs veh, TMEM135 / RFU, DEPTOR / Fold change vs veh, DEPTOR / RFU, CPM / Fold change vs veh, CPM / RFU, DNAJB6 / Fold change vs veh, DNAJB6 / RFU, CACNA2D3 / Fold change vs veh, CACNA2D3 / RFU, DTX4 / Fold change vs veh, DTX4 / RFU, TFCP2 / Fold change vs veh, TFCP2 / RFU, GMCL1 /// GMCL1P1 / Fold change vs veh, GMCL1 /// GMCL1P1 / RFU, AEBP2 / Fold change vs veh, AEBP2 / RFU, SNHG1 /// SNORD22 /// SNORD25 /// SNORD26 /// SNORD27 /// SNORD28 /// SNORD29 /// SNORD31 / Fold change vs veh, SNHG1 /// SNORD22 /// SNORD25 /// SNORD26 /// SNORD27 /// SNORD28 /// SNORD29 /// SNORD31 / Fold change (Aza/veh), C12orf56 (ProbeSet 11735607_a_at) / Fold change (ACY-1035/veh), C12orf56 (ProbeSet 11735607_a_at) / Fold change (Aza/veh), FGFR1OP (ProbeSet 11751329_s_at) / Fold change (ACY-1035/veh), FGFR1OP (ProbeSet 11751329_s_at) / Fold change (Aza/veh), VPS36 (ProbeSet 11739960_a_at) / Fold change (ACY-1035/veh), VPS36 (ProbeSet 11739960_a_at) / RFU SYPL1 (11715823_x_at) / Fold change /veh SYPL1 (11715823_x_at) / RFU IGFBP7 (11715501_s_at) / Fold change /veh IGFBP7 (11715501_s_at) / RFU REEP3 (11722064_at) / Fold change /veh REEP3 (11722064_at) / RFU IGLL1 (11728026_x_at) / Fold change /veh IGLL1 (11728026_x_at): dose or concentration left out as unconfirmed
Settings: MV-4-11 cells, 48 hours

## Nc1ccc(-c2cccs2)cc1NC(=O)c1ccc2c(c1)cc(C1CC1)n2CCN1CCOCC1 [ACY-1035]
  Fold change /veh PRSS12 (11739890_at): 1.14
